Source: patent US20110275574A1, “METHOD OF INHIBITING PROLIFERATION OF HEPATIC STELLATE CELLS” (Agency for Science, Technology and Research, priority 2009, published 2011)

Key:
HSC-2 cells [1] = experiment: gap-FRAP analysis of gap junction intercellular communication; type: cell-based, rat
Description: Analysis of gap junction intercellular communication: HSC-2 cells were grown in a 60 mm cell culture dish overnight. At 90% cell confluence, hTGF-β1 (final concentration 10 ng/ml) or carbenoxolone (final concentration 40 μM) was added and incubated for 6 hours. As control, only PBS was given to the cells. Alternatively, BIM I (final concentration 5 μM) was added 30 minutes before the addition of hTGF-[3]. After a brief rinse in PBS, cells were incubated in D-MEM without phenol red, containing 5,6-carboxyfluorescein diacetate (Research Organics, USA) at a final concentration of 50 μg/ml and incubated in a 37° C. humidified incubator for 30 min. The cells were then rinsed twice with PBS and D-MEM without phenol red was added before proceeding with the Fluorescence Recovery After Photobleaching (FRAP) assay. The FRAP application included in the software package of the LEICA TCS SP2 equipped with the DM6000 (LEICA, Germany) was used. A 63× immersed objective (Leica HCX APO L U-V-I 63×/0.90 Water UV) was used. The argon laser at 488 nm was used for excitation and the fluorescence signal was captured between 500 and 535 nm. The conditions were as follows: 5 pre-bleach scans at 10% laser power, 40 bleach scans at 100% laser power followed by 60 post-bleach scans at 15 seconds intervals. During the bleaching period, the Zoom mode was used to bleach a single cell (target cell) defined in a region of interest (ROI). All data were corrected for photobleaching during post-bleach acquisition using the whole scanned area. The time constant of recovery, tau (τ), was estimated by fitting the corrected experimental data (OriginPro 7 SR4, OriginLab USA) to the following function: F(t)=F0+(F∞−F0)(1−e^−t/τ), with F(t) being the corrected fluorescence intensity and F∞ being the asymptotic value of the fluorescence intensity. The transfer constant (k) was calculated from k=1/τ and normalized by dividing by the number of cells in contact with the target cell. The fluorescence recovery for each cell was about 50%.

Cx43 mRNA = Cx43 mRNA expression by quantitative real-time PCR in HSC-2 cells; type: cell-based, rat
Description: (§1) Cell culture conditions: Primary hepatic stellate cells were isolated from male Wistar rats according to a previously published procedure (Weiskirchen and Gressner, 2005). The protocol was approved by the Institutional Animal Care and Use Committee (IACUC) of the Biomedical Research Council of Singapore. The purity of primary HSCs was assessed by vitamin A autofluorescence one day after isolation. The cell line HSC-2 was described elsewhere (Maubach et al., 2008). All cells were cultivated in a humidified 37° C. incubator circulated with 5% CO2. High glucose Dulbecco's modified Eagle medium (D-MEM) containing 10% fetal bovine serum, 100 units/ml penicillin and 100 μg/ml streptomycin was used during cell culture. Trypsin-EDTA was purchased from Biochrome (Germany). All other cell culture reagents were from Invitrogen (CA, USA).
(§2) Hepatic stellate cells treatment with recombinant human TGF-β1: Twenty four hours prior to treatment, HSCs were seeded in 75 cm^2 tissue culture flasks. At 60-70% cell confluence, recombinant human TGF-β1 (hTGF-[3]) was added at a final concentration of 1 or 10 ng/ml and incubated for 2, 6, 10, 24 or 30 hours. For the control treatment, only phosphate-buffered saline (PBS) was given to the cells. In some experiments, HSC-2 cells were treated with bisindolylmaleimide I (BIM I) at a final concentration of 5 μM for 30 min before treatment with 10 ng/ml hTGF-β1.
Reverse transcription and quantitative PCR: Total RNA was isolated from cells according to the manufacturer's protocol (RNA II kit, Machery-Nagel, Germany). All reagents for reverse transcription and real-time PCR were from Applied Biosystems (CA, USA). One microgram of total RNA was reverse transcribed to cDNA in a total reaction volume of 50 μl at conditions described in the RT kit (N8080234). Real-time PCR reactions were performed using the Fast Real Time PCR System (Applied Biosystems). Three microlitres of cDNA were used in a PCR reaction volume of 10 μl. The Taqman probes for target genes Cx43 and Snai1, as well as for endogenous control β-actin were Rn01433957_m1, Rn00441533_g1 and 4352341E, respectively. The PCR conditions were 95° C. for 20 s and 40 cycles of amplification at 95° C. for 3 s and 60° C. for 30 s.
(§3) Snai1 and connexin 43 siRNAs transfection: Shortly before transfection, 1−2×10^6 HSC-2 cells were seeded in 100 mm cell culture dishes and incubated at 37° C. The siRNA was added at a final concentration of 10 nM to 1 ml of D-MEM without serum, followed by 120 μl of HiPerfect transfection reagent (Qiagen, Germany) and incubated for 10 min. The siRNA/transfection reagent solution was added drop-wise to the cells and incubated for 24 or 48 hours. As mock control, only HiPerfect reagent was added to the cells. The Snai1 siRNAs used were Rn_Snai1—1 and Rn_Snai1—3 and the Cx43 siRNAs used were Rn_Gja1—1 and Rn_Gja1—5 (Qiagen, Germany).

Cx43 protein = Cx43 protein expression by Western blot in HSC-2 cells; type: cell-based, rat
Description: as §2, with “At 60-70% cell confluence, recombinant human TGF-β1 (hTGF-[3]) was added at a final concentration of 1 or 10 ng/ml and incubated for 2, 6, 10, 24 or 30 hours.” left out
SDS-PAGE and Western blot: Cell lysis and subsequent separation of total protein in SDS-PAGE followed by Western blot was performed as recently described (Lim et al., 2008). The membrane was blocked with 5% non-fat milk in TBS-Tween (TBS-T). The Cx43 (sc-9059, Santa Cruz Biotechnology, USA), phosphorylated Cx43 at serine 368 (pCx43 Ser368, 3511S, Cell Signaling Technology, USA), PCNA (Ab29, Abcam, UK) and β-actin (A2228, Sigma, USA) primary antibodies were applied at a dilution of 1:1000, 1:750, 1:5000 and 1:7500 respectively in blocking solution. After three washes in TBS-T, the appropriate secondary antibody conjugated with horse radish peroxidase (Santa Cruz Biotechnology, USA) was added at a dilution of 1:2000 in blocking solution. After three washes in TBS-T, the membrane was developed with ECL Plus (RPN2132, GE Healthcare, UK). […] Semi-quantitative densitometric analysis of Western blots was performed using the ImageJ software (W. Rasband, NIH; rsb.info.nih.gov/ij/). […]

pCx43 Ser368 = experiment: Phosphorylation of Cx43 at serine 368 by Western blot in HSC-2 cells; type: cell-based, rat; settings: HSC-2, 10 ng/ml hTGF-β1, 6 hours
Description: as §2
SDS-PAGE and Western blot: Cell lysis and subsequent separation of total protein in SDS-PAGE followed by Western blot was performed as recently described (Lim et al., 2008). The membrane was blocked with 5% non-fat milk in TBS-Tween (TBS-T). The Cx43 (sc-9059, Santa Cruz Biotechnology, USA), phosphorylated Cx43 at serine 368 (pCx43 Ser368, 3511S, Cell Signaling Technology, USA), PCNA (Ab29, Abcam, UK) and β-actin (A2228, Sigma, USA) primary antibodies were applied at a dilution of 1:1000, 1:750, 1:5000 and 1:7500 respectively in blocking solution. […] Semi-quantitative densitometric analysis of Western blots was performed using the ImageJ software (W. Rasband, NIH; rsb.info.nih.gov/ij/).

Snai1 = Snai1 mRNA and protein expression (real-time PCR, Western blot) in HSC-2 cells; type: cell-based, rat
Description: as §2
Reverse transcription and quantitative PCR: Total RNA was isolated from cells according to the manufacturer's protocol (RNA II kit, Machery-Nagel, Germany). All reagents for reverse transcription and real-time PCR were from Applied Biosystems (CA, USA). One microgram of total RNA was reverse transcribed to cDNA in a total reaction volume of 50 μl at conditions described in the RT kit (N8080234). Real-time PCR reactions were performed using the Fast Real Time PCR System (Applied Biosystems). […]
SDS-PAGE and Western blot: Cell lysis and subsequent separation of total protein in SDS-PAGE followed by Western blot was performed as recently described (Lim et al., 2008). […] Semi-quantitative densitometric analysis of Western blots was performed using the ImageJ software (W. Rasband, NIH; rsb.info.nih.gov/ij/). […]

Snai1 mRNA = Snai1 mRNA expression in in vitro activated primary HSCs; type: cell-based, rat; settings: 1 and 10 ng/ml hTGF-β1, 10 hours
Description: as §1
as §2, with “In some experiments, HSC-2 cells were treated with bisindolylmaleimide I (BIM I) at a final concentration of 5 μM for 30 min before treatment with 10 ng/ml hTGF-β1.” left out
Reverse transcription and quantitative PCR: Total RNA was isolated from cells according to the manufacturer's protocol (RNA II kit, Machery-Nagel, Germany). […]

[2] = system: Snai1 consensus sequence in the Cx43 promoter; experiment: Electrophoretic mobility shift assay, HSC-2 nuclear extract on Snai1 consensus sequence of rat Cx43 promoter; type: cell-based; settings: nuclear extract of HSC-2, 10 ng/ml hTGF-β1 2 hours, versus untreated
Text: Electrophoretic mobility shift assay: Based on the rat Cx43 gene (NW—001084790), biotinylated double-stranded oligonucleotide probe […]-3 [SEQ ID NO: 12], with the Snai1 consensus sequence (underlined), was synthesized (Research Biolabs, Singapore). In the mutated double-stranded oligonucleotide, the Snai1 consensus sequence was changed to CAGGAA. Nuclear protein extract was obtained using the NE-PER Nuclear and Cytoplasmic Extraction kit (Pierce, USA). The electrophoretic mobility shift assay was performed using reagents from the Snai1 kit according to its protocol (AY1398, Panomics, USA). Briefly, 5 μg nuclear protein extract was incubated in a reaction mixture consisting of poly d(1-C), 5× binding buffer and nuclease-free water for 5 min before addition of 1 μl probe (stock 20 nM). The total reaction volume was 10 μl. For competition assay, 2 μl unlabeled probe (stock 2 μM) was added 5 min prior to the addition of labeled probe. The reaction was incubated at 15° C. for 30 min. The samples were separated in a 6% non-denaturing polyacrylamide gel (Invitrogen) and transferred onto a nylon membrane.

HSC-2 cells [3] = experiment: Cell counting (proliferation) of HSC-2 cells; type: cell-based, rat; settings: HSC-2, 10 ng/ml hTGF-β1, 48 hours
Description: as §3
Cell counting: After treatment, cells were washed once with PBS and detached using trypsin/EDTA. Following centrifugation at 800 rpm for 4 min, the cell pellet was resuspended in 1 ml D-MEM and the cells were counted using the forward scatter function of the GUAVA PCA-96 (Guava Technologies, CA, USA).

PCNA = experiment: Expression of proliferation marker PCNA by Western blot in HSC-2 cells; type: cell-based, rat; settings: HSC-2, 10 ng/ml hTGF-β1, 48 hours
Description: SDS-PAGE and Western blot: Cell lysis and subsequent separation of total protein in SDS-PAGE followed by Western blot was performed as recently described (Lim et al., 2008). The membrane was blocked with 5% non-fat milk in TBS-Tween (TBS-T). The Cx43 (sc-9059, Santa Cruz Biotechnology, USA), phosphorylated Cx43 at serine 368 (pCx43 Ser368, 3511S, Cell Signaling Technology, USA), PCNA (Ab29, Abcam, UK) and β-actin (A2228, Sigma, USA) primary antibodies were applied at a dilution of 1:1000, 1:750, 1:5000 and 1:7500 respectively in blocking solution. After three washes in TBS-T, the appropriate secondary antibody conjugated with horse radish peroxidase (Santa Cruz Biotechnology, USA) was added at a dilution of 1:2000 in blocking solution. After three washes in TBS-T, the membrane was developed with ECL Plus (RPN2132, GE Healthcare, UK). The incubation with pCx43 antibody was performed overnight at 4° C. All other incubations were carried out for 1 hour at room temperature. Semi-quantitative densitometric analysis of Western blots was performed using the ImageJ software (W. Rasband, NIH; rsb.info.nih.gov/ij/).
Snai1 and connexin 43 siRNAs transfection: Shortly before transfection, 1−2×10^6 HSC-2 cells were seeded in 100 mm cell culture dishes and incubated at 37° C. […]

[4] = HSC-2, 10 ng/ml hTGF-β1, up to 30 hours

Row | Compound | dye transfer rate (k), reduced to (HSC-2 cells [1]; HSC-2, 40 μM carbenoxolone, 6 hours) | decrease of Cx43 transcripts (Cx43 mRNA; HSC-2, 1 ng/ml hTGF-β1, 10 hours) [%] | decrease of Cx43 transcripts (Cx43 mRNA; HSC-2, 10 ng/ml hTGF-β1, 10 hours) [%] | Cx43 transcript and protein expression (Cx43 mRNA; [4]) | expression of Cx43 (Cx43 protein; HSC-2, 10 ng/ml hTGF-β1, 48 hours) | Cx43 protein regulation (Cx43 protein; HSC-2, 1 and 10 ng/ml hTGF-β1, 24 hours) | phosphorylation of Cx43 at serine 368 (pCx43 Ser368) | transfer rate of the fluorescence dye 5,6-carboxyfluorescein diacetate (HSC-2 cells [1]; HSC-2, 10 ng/ml hTGF-β1, 6 hours, versus PBS control) | Snai1 transcript and protein expression (Snai1; [4]) | Snai1 mRNA (Snai1; HSC-2, 1 and 10 ng/ml hTGF-β1, 10 hours) | Snai1 mRNA (Snai1 mRNA) | EMSA band of Snai1-oligonucleotide complex [2] | cell number (HSC-2 cells [3]) | expression of PCNA (PCNA)
1 | CC1(C)[C@@H](OC(=O)CCC(=O)O)CC[C@]2(C)[C@H]3C(=O)C=C4[C@@H]5C[C@@](C)(C(=O)O)CC[C@]5(C)CC[C@@]4(C)[C@]3(C)CC[C@@H]12 [carbenoxolone] | about 50% | – | – | – | – | – | – | – | – | – | – | – | – | –
2 | hTGF-β1: recombinant human TGF-β1, pro-fibrogenic cytokine added to HSCs | – | 30 | 45 | decrease | significant reduction | down-regulated | increase | significantly lower | increase | induced | induced | more intense band | significant reduction | significant reduction
